Results reported in US20240246908A1 (ORION CORPORATION, priority 2021, published 2024).
pIC50: −log10 of the molar value.

tested on: YAP-TEAD; test: TEAD inhibition, Hippo Pathway TEAD Reporter MCF-7 luciferase assay; assay type: cell-based; conditions: Homo sapiens, MCF7, 24 h, Hippo Pathway TEAD Reporter MCF-7 cells, luciferase activity after 24 h; read-out: IC50 of the test compounds on YAP-TEAD inhibition (Group)
Summary of the method: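 IC50 derived from ONE-Glo luciferase luminescence after 24 h compound exposure (11 concentrations in quadruplicate, 0.1% DMSO control). Reporter: MCF-7 line expressing firefly luciferase under TEAD elements, constitutively activated by nuclear YAP1.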

Structure (SMILES) | pIC50
O=C(Nc1cc(Oc2ccc(C(F)(F)F)cn2)cc2c1OCO2)C1CCC(=O)N1C1CC1 (stereo not shown) [Compound 179, 1-Cyclopropyl-5-oxo-N-(6-((5-(trifluoromethyl)pyridin-2-yl)oxy)benzo[d]-[1,3]dioxol-4-yl)pyrrolidine-2-carboxamide] | > 7.30
CN1C(=O)CCC1C(=O)Nc1cc(Oc2ccc(C(F)(F)F)cc2)cc2ccoc12 (stereo not shown) [Compound 185, 1-Methyl-5-oxo-N-(5-(4-(trifluoromethyl)phenoxy)benzofuran-7-yl)pyrrolidine-2-carboxamide] | > 7.30
CN1C(=O)NCC1C(=O)Nc1cc(Oc2ccc(C(F)(F)F)cc2)cc2c1OCO2 (stereo not shown) [Compound 186, 3-Methyl-2-oxo-N-(6-(4-(trifluoromethyl)phenoxy)benzo[d][1,3]dioxol-4-yl)-imidazolidine-4-carboxamide] | > 7.30
O=C1CC(C(=O)Nc2cc(Oc3ccc(C(F)(F)F)cc3)cc3c2OCC3)CCN1 (stereo not shown) [Compound 187, 2-Oxo-N-(5-(4-(trifluoromethyl)phenoxy)-2,3-dihydrobenzofuran-7-yl)-piperidine-4-carboxamide] | > 7.30
CNC(=O)CN1C(=O)CCC1C(=O)Nc1cc(Oc2ccc(C(F)(F)F)cc2)cc2c1OCC2 (stereo not shown) [Compound 188, 1-(2-(Methylamino)-2-oxoethyl)-5-oxo-N-(5-(4-(trifluoromethyl)phenoxy)-2,3-dihydrobenzofuran-7-yl)pyrrolidine-2-carboxamide] | 5.70 to 6.52
NC(=O)CN1C(=O)CCC1C(=O)Nc1cc(Oc2ccc(C(F)(F)F)cc2)cc2c1OCC2 (stereo not shown) [Compound 189, 1-(2-Amino-2-oxoethyl)-5-oxo-N-(5-(4-(trifluoromethyl)phenoxy)-2,3-dihydro-benzofuran-7-yl)pyrrolidine-2-carboxamide] | > 7.30
O=C1CCC(C(=O)Nc2cc(OC3CCC(F)(F)CC3)cc3c2OCC3)CN1 (stereo not shown) [Compound 190, N-(5-((4,4-Difluorocyclohexyl)oxy)-2,3-dihydrobenzofuran-7-yl)-6-oxo-piperidine-3-carboxamide] | 5.70 to 6.52
O=C1CCC(C(=O)Nc2cc(OC3CCC(F)(F)CC3)cc3c2OCCO3)CN1 (stereo not shown) [Compound 191, N-(7-((4,4-Difluorocyclohexyl)oxy)-2,3-dihydrobenzo[b][1,4]dioxin-5-yl)-6-oxopiperidine-3-carboxamide] | 5.70 to 6.52
CN1C(=O)NCC1C(=O)Nc1cc(Oc2ccc(C(F)(F)F)cc2)cc2c1OCCO2 (stereo not shown) [Compound 192, 3-Methyl-2-oxo-N-(7-(4-(trifluoromethyl)phenoxy)-2,3-dihydrobenzo[b][1,4]-dioxin-5-yl)imidazolidine-4-carboxamide] | > 7.30
CN1C(=O)OCC1C(=O)Nc1cc(Oc2ccc(C(F)(F)F)cn2)ccc1F (stereo not shown) [Compound 197, N-(2-Fluoro-5-((5-(trifluoromethyl)pyridin-2-yl)oxy)phenyl)-3-methyl-2-oxooxazolidine-4-carboxamide] | 6.52 to 7.30
CN1C(=O)OC[C@@H]1C(=O)Nc1cc(Oc2ccc(C(F)(F)F)cn2)ccc1F [Compound 198, (R)—N-(2-Fluoro-5-((5-(trifluoromethyl)pyridin-2-yl)oxy)phenyl)-3-methyl-2-oxooxazolidine-4-carboxamide] | 6.52 to 7.30
CN1C(=O)OC[C@H]1C(=O)Nc1cc(Oc2ccc(C(F)(F)F)cn2)ccc1F [Compound 199, (S)—N-(2-Fluoro-5-((5-(trifluoromethyl)pyridin-2-yl)oxy)phenyl)-3-methyl-2-oxooxazolidine-4-carboxamide] | 5.70 to 6.52
COc1ccc(Oc2cc(C(F)(F)F)ccn2)cc1NC(=O)C1CNC(=O)N1C (stereo not shown) [Compound 200, N-(2-Methoxy-5-((4-(trifluoromethyl)pyridin-2-yl)oxy)phenyl)-3-methyl-2-oxoimidazolidine-4-carboxamide] | 6.52 to 7.30
COc1ccc(Oc2cc(C(F)(F)F)ccn2)cc1NC(=O)C1CCC(=O)N1C (stereo not shown) [Compound 201, N-(2-Methoxy-5-((4-(trifluoromethyl)pyridin-2-yl)oxy)phenyl)-1-methyl-5-oxopyrrolidine-2-carboxamide] | 5.70 to 6.52
COc1ccc(Oc2ccc(F)cn2)cc1NC(=O)C1CCC(=O)N1C (stereo not shown) [Compound 202, N-(5-((5-Fluoropyridin-2-yl)oxy)-2-methoxyphenyl)-1-methyl-5-oxopyrrolidine-2-carboxamide] | 5.70 to 6.52
COc1ccc(Oc2ccc(Cl)cn2)cc1NC(=O)C1CCC(=O)N1C (stereo not shown) [Compound 203, N-(5-((5-Chloropyridin-2-yl)oxy)-2-methoxyphenyl)-1-methyl-5-oxo-pyrrolidine-2-carboxamide] | 5.70 to 6.52
COc1ccc(COC2CCC(F)(F)CC2)cc1NC(=O)C1CCC(=O)N1C (stereo not shown) [Compound 205, N-(5-(((4,4-Difluorocyclohexyl)oxy)methyl)-2-methoxyphenyl)-1-methyl-5-oxopyrrolidine-2-carboxamide] | 5.70 to 6.52
COc1ccc(OCC2CCC(F)(F)CC2)cc1NC(=O)C1CCC(=O)N1C (stereo not shown) [Compound 206, N-(5-((4,4-Difluorocyclohexyl)methoxy)-2-methoxyphenyl)-1-methyl-5-oxopyrrolidine-2-carboxamide] | > 7.30
COc1ccc(OC2CCCC(F)(F)CC2)cc1NC(=O)[C@@H]1CCC(=O)N1C (stereo partly drawn) [Compound 207, (2S)—N-(5-((4,4-Difluorocycloheptyl)oxy)-2-methoxyphenyl)-1-methyl-5-oxopyrrolidine-2-carboxamide] | 6.52 to 7.30
COc1ccc(OC2CCC(C(F)(F)F)CC2)cc1NC(=O)[C@H]1COC(=O)N1C (stereo partly drawn) [Compound 208, (R)—N-(2-Methoxy-5-((4-(trifluoromethyl)cyclohexyl)oxy)phenyl)-3-methyl-2-oxooxazolidine-4-carboxamide] | > 7.30
COc1ccc(O[C@H]2CC[C@@H](C(F)(F)F)CC2)cc1NC(=O)[C@H]1CCC(=O)N1C [Compound 209, (R)—N-(2-Methoxy-5-(((cis)-4-(trifluoromethyl)cyclohexyl)oxy)phenyl)-1-methyl-5-oxopyrrolidine-2-carboxamide] | > 7.30

Further lines, results first:

pIC50 | Structure (SMILES)
> 7.30 | CCN1C(=O)CC[C@@H]1C(=O)Nc1cc(Oc2ccc(C(F)(F)F)cn2)cc2c1OCC2 [Compound 170, (R)-1-Ethyl-5-oxo-N-(5-((5-(trifluoromethyl)pyridin-2-yl)oxy)-2,3-dihydro-benzofuran-7-yl)pyrrolidine-2-carboxamide]
> 7.30 | CCN1C(=O)CC[C@H]1C(=O)Nc1cc(Oc2ccc(C(F)(F)F)cn2)cc2c1OCC2 [Compound 171, (S)-1-Ethyl-5-oxo-N-(5-((5-(trifluoromethyl)pyridin-2-yl)oxy)-2,3-dihydro-benzofuran-7-yl)pyrrolidine-2-carboxamide]
6.52 to 7.30 | C[C@H]1Cc2cc(Oc3ccc(C(F)(F)F)cn3)cc(NC(=O)[C@H]3CCC(=O)N3C)c2O1 [Compound 172, (2R)-1-Methyl-N-(2-methyl-5-((5-(trifluoromethyl)pyridin-2-yl)oxy)-2,3-di-hydrobenzofuran-7-yl)-5-oxopyrrolidine-2-carboxamide]
6.52 to 7.30 | C[C@@H]1Cc2cc(Oc3ccc(C(F)(F)F)cn3)cc(NC(=O)[C@H]3CCC(=O)N3C)c2O1 [Compound 173, (2R)-1-Methyl-N-(2-methyl-5-((5-(trifluoromethyl)pyridin-2-yl)oxy)-2,3-di-hydrobenzofuran-7-yl)-5-oxopyrrolidine-2-carboxamide]
6.52 to 7.30 | CN1C(=O)CC[C@H]1C(=O)Nc1cc(Oc2ccc(C(F)(F)F)cn2)cc2c1OCCC2 [Compound 174, (S)-1-Methyl-5-oxo-N-(6-((5-(trifluoromethyl)pyridin-2-yl)oxy)chroman-8-yl)pyrrolidine-2-carboxamide]
> 7.30 | CN1C(=O)CC[C@@H]1C(=O)Nc1cc(Oc2ccc(C(F)(F)F)cn2)cc2c1OCCC2 [Compound 175, (R)-1-Methyl-5-oxo-N-(6-((5-(trifluoromethyl)pyridin-2-yl)oxy)chroman-8-yl)pyrrolidine-2-carboxamide]
> 7.30 | CN1C(=O)NCC1C(=O)Nc1cc(Oc2ccc(C(F)(F)F)cn2)cc2c1OCCC2 (stereo not shown) [Compound 176, 3-Methyl-2-oxo-N-(6-((5-(trifluoromethyl)pyridin-2-yl)oxy)chroman-8-yl)-imidazolidine-4-carboxamide]
> 7.30 | CN1C(=O)CCC1C(=O)Nc1cc(Oc2ccc(C(F)(F)F)cn2)cc2c1OCCC2 (stereo not shown) [Compound 177, 1-Methyl-5-oxo-N-(6-((5-(trifluoromethyl)pyridin-2-yl)oxy)chroman-8-yl)-pyrrolidine-2-carboxamide]
> 7.30 | CN1C(=O)NCC1C(=O)Nc1cc(Oc2ccc(C(F)(F)F)cn2)cc2c1OCO2 (stereo not shown) [Compound 178, 3-Methyl-2-oxo-N-(6-((5-(trifluoromethyl)pyridin-2-yl)oxy)benzo[d]-[1,3]dioxol-4-yl)imidazolidine-4-carboxamide]
> 7.30 | CN1C(=O)NC[C@H]1C(=O)Nc1cc(Oc2ccc(C(F)(F)F)cn2)cc2c1OCO2 [Compound 180, (S)-3-Methyl-2-oxo-N-(6-((5-(trifluoromethyl)pyridin-2-yl)oxy)benzo-[d][1,3]dioxol-4-yl)imidazolidine-4-carboxamide]
5.70 to 6.52 | CN1C(=O)NC[C@@H]1C(=O)Nc1cc(Oc2ccc(C(F)(F)F)cn2)cc2c1OCO2 [Compound 181, (R)-3-Methyl-2-oxo-N-(6-((5-(trifluoromethyl)pyridin-2-yl)oxy)benzo-[d][1,3]dioxol-4-yl)imidazolidine-4-carboxamide]
5.70 to 6.52 | CN1C(=O)NCC1C(=O)Nc1cc(Oc2ccc(C(F)(F)F)cn2)cc2cn[nH]c12 (stereo not shown) [Compound 193, 3-Methyl-2-oxo-N-(5-((5-(trifluoromethyl)pyridin-2-yl)oxy)-1H-indazol-7-yl)-imidazolidine-4-carboxamide]
> 7.30 | CN1C(=O)NC[C@@H]1C(=O)Nc1cc(Oc2ccc(C(F)(F)F)cn2)ccc1F [Compound 196, (R)—N-(2-Fluoro-5-((5-(trifluoromethyl)pyridin-2-yl)oxy)phenyl)-3-methyl-2-oxoimidazolidine-4-carboxamide]
